Laboratory results: ChEMBL document CHEMBL4270577, “Synthesis, anticancer activity and molecular modeling studies of 1,2,4-triazole derivatives as EGFR inhibitors” (Eur J Med Chem, 2018)

Columns and labels:
Tubulin (Homo sapiens) = Tubulin (Homo sapiens) (UniProt P68371+Q9H4B7+P0DPH7+P68366+Q13509+Q71U36+P04350+Q3ZCM7+P07437+P68363+Q9BQE3+Q6PEY2+Q13885+Q9BVA1+Q9BUF5); assay: Inhibition of tubulin (unknown origin) polymerization assessed as polymerized tubulin level at 5 to 25 uM by fluorescence assay; format: protein-complex assay
CCRF-CEM = assay: Growth inhibition of human CCRF-CEM cells at 10 uM incubated for 48 hrs by sulforhodamine B assay relative to control; format: functional; conditions: read-out: GI
HL-60(TB) = assay: Growth inhibition of human HL-60(TB) cells at 10 uM incubated for 48 hrs by sulforhodamine B assay relative to control; format: functional; conditions: HL-60, 48 h, read-out: GI
MOLT-4 = assay: Growth inhibition of human MOLT4 cells at 10 uM incubated for 48 hrs by sulforhodamine B assay relative to control; format: functional; conditions: MOLT-4, 48 h, read-out: GI
RPMI-8226 = assay: Growth inhibition of human RPMI8226 cells at 10 uM incubated for 48 hrs by sulforhodamine B assay relative to control; format: functional; conditions: RPMI-8226, 48 h, read-out: GI
SR = assay: Growth inhibition of human SR cells at 10 uM incubated for 48 hrs by sulforhodamine B assay relative to control; format: functional; conditions: read-out: GI
A549 = assay: Growth inhibition of human A549/ATCC cells at 10 uM incubated for 48 hrs by sulforhodamine B assay relative to control; format: functional; conditions: A549, 48 h, read-out: GI
HOP-62 = assay: Growth inhibition of human HOP62 cells at 10 uM incubated for 48 hrs by sulforhodamine B assay relative to control; format: functional; conditions: HOP-62, 48 h, read-out: GI
HOP-92 = assay: Growth inhibition of human HOP92 cells at 10 uM incubated for 48 hrs by sulforhodamine B assay relative to control; format: functional; conditions: HOP-92, 48 h, read-out: GI
NCI-H322M = assay: Growth inhibition of human NCI-H322M cells at 10 uM incubated for 48 hrs by sulforhodamine B assay relative to control; format: functional; conditions: read-out: GI
NCI-H522 = assay: Growth inhibition of human NCI-H522 cells at 10 uM incubated for 48 hrs by sulforhodamine B assay relative to control; format: functional; conditions: NCI-H522, 48 h, read-out: GI
HCT-116 = assay: Growth inhibition of human HCT116 cells at 10 uM incubated for 48 hrs by sulforhodamine B assay relative to control; format: functional; conditions: HCT-116, 48 h, read-out: GI
HT-29 [1] = assay: Growth inhibition of human HT-29 cells at 10 uM incubated for 48 hrs by sulforhodamine B assay relative to control; format: functional; conditions: HT-29, 48 h, read-out: GI
SNB-19 = assay: Growth inhibition of human SNB19 cells at 10 uM incubated for 48 hrs by sulforhodamine B assay relative to control; format: functional; conditions: SNB-19, 48 h, read-out: GI
SNB-75 = assay: Growth inhibition of human SNB75 cells at 10 uM incubated for 48 hrs by sulforhodamine B assay relative to control; format: functional; conditions: SNB-75, 48 h, read-out: GI
U-251 = assay: Growth inhibition of human U251 cells at 10 uM incubated for 48 hrs by sulforhodamine B assay relative to control; format: functional; conditions: U-251, 48 h, read-out: GI
SK-MEL-2 = assay: Growth inhibition of human SK-MEL-2 cells at 10 uM incubated for 48 hrs by sulforhodamine B assay relative to control; format: functional; conditions: SK-MEL-2, 48 h, read-out: GI
UACC-257 = assay: Growth inhibition of human UACC257 cells at 10 uM incubated for 48 hrs by sulforhodamine B assay relative to control; format: functional; conditions: UACC-257, 48 h, read-out: GI
UACC-62 = assay: Growth inhibition of human UACC62 cells at 10 uM incubated for 48 hrs by sulforhodamine B assay relative to control; format: functional; conditions: UACC-62, 48 h, read-out: GI
OVCAR-8 = assay: Growth inhibition of human OVCAR8 cells at 10 uM incubated for 48 hrs by sulforhodamine B assay relative to control; format: functional; conditions: OVCAR-8, 48 h, read-out: GI
SK-OV-3 = assay: Growth inhibition of human SKOV3 cells at 10 uM incubated for 48 hrs by sulforhodamine B assay relative to control; format: functional; conditions: SK-OV-3, 48 h, read-out: GI
UO-31 = assay: Growth inhibition of human UO31 cells at 10 uM incubated for 48 hrs by sulforhodamine B assay relative to control; format: functional; conditions: UO-31, 48 h, read-out: GI
PC-3 = assay: Growth inhibition of human PC3 cells at 10 uM incubated for 48 hrs by sulforhodamine B assay relative to control; format: functional; conditions: PC-3, 48 h, read-out: GI
MCF7 = assay: Growth inhibition of human MCF7 cells at 10 uM incubated for 48 hrs by sulforhodamine B assay relative to control; format: functional; conditions: MCF7, 48 h, read-out: GI
Hs-578T = assay: Growth inhibition of human Hs 578T cells at 10 uM incubated for 48 hrs by sulforhodamine B assay relative to control; format: functional; conditions: read-out: GI
T47D = assay: Growth inhibition of human T47D cells at 10 uM incubated for 48 hrs by sulforhodamine B assay relative to control; format: functional; conditions: read-out: GI
PANC-1 = assay: Antiproliferative activity against human PANC1 cells after 48 hrs by propidium iodide staining-based fluorometric analysis; format: functional, cell-based; conditions: PANC-1, 48 h
MIA PaCa-2 = assay: Antiproliferative activity against human MIAPaCa2 cells after 48 hrs by propidium iodide staining-based fluorometric analysis; format: functional, cell-based; conditions: MIA PaCa-2, 48 h
HT-29 [2] = assay: Antiproliferative activity against human HT-29 cells after 48 hrs by propidium iodide staining-based fluorometric analysis; format: functional, cell-based; conditions: HT-29, 48 h
NCI-H460 = assay: Antiproliferative activity against human H460 cells after 48 hrs by propidium iodide staining-based fluorometric analysis; format: functional, cell-based; conditions: NCI-H460, 48 h
NCI-H226 = assay: Growth inhibition of human NCI-H226 cells at 10 uM incubated for 48 hrs by sulforhodamine B assay relative to control; format: functional; conditions: NCI-H226, 48 h, read-out: GI
NCI-H23 = assay: Growth inhibition of human NCI-H23 cells at 10 uM incubated for 48 hrs by sulforhodamine B assay relative to control; format: functional; conditions: NCI-H23, 48 h, read-out: GI
TK-10 = assay: Growth inhibition of human TK10 cells at 10 uM incubated for 48 hrs by sulforhodamine B assay relative to control; format: functional; conditions: TK-10, 48 h, read-out: GI
A498 = assay: Growth inhibition of human A498 cells at 10 uM incubated for 48 hrs by sulforhodamine B assay relative to control; format: functional; conditions: A498, 48 h, read-out: GI
SF-268 = assay: Growth inhibition of human SF268 cells at 10 uM incubated for 48 hrs by sulforhodamine B assay relative to control; format: functional; conditions: SF-268, 48 h, read-out: GI
IGROV-1 = assay: Growth inhibition of human IGROV1 cells at 10 uM incubated for 48 hrs by sulforhodamine B assay relative to control; format: functional; conditions: IGROV-1, 48 h, read-out: GI
MDA-MB-231 = assay: Growth inhibition of human MDA-MB-231/ATCC cells at 10 uM incubated for 48 hrs by sulforhodamine B assay relative to control; format: functional; conditions: MDA-MB-231, 48 h, read-out: GI

Structure (SMILES) | inhibition of growth at 10 µM (CCRF-CEM) [%] | inhibition of growth at 10 µM (HL-60(TB)) [%] | inhibition of growth at 10 µM (MOLT-4) [%] | inhibition of growth at 10 µM (SR) [%] | inhibition of growth at 10 µM (A549) [%] | inhibition of growth at 10 µM (HOP-62) [%] | inhibition of growth at 10 µM (NCI-H522) [%] | inhibition of growth at 10 µM (HT-29 [1]) [%] | inhibition of growth at 10 µM (SNB-19) [%] | inhibition of growth at 10 µM (SNB-75) [%] | inhibition of growth at 10 µM (U-251) [%] | inhibition of growth at 10 µM (UACC-257) [%] | inhibition of growth at 10 µM (OVCAR-8) [%] | inhibition of growth at 10 µM (SK-OV-3) [%] | inhibition of growth at 10 µM (UO-31) [%] | inhibition of growth at 10 µM (PC-3) [%] | IC50 (PANC-1) [µM] | IC50 (MIA PaCa-2) [µM] | IC50 (HT-29 [2]) [µM] | IC50 (NCI-H460) [µM] | other results
CC(=O)O[C@@]12CO[C@@H]1C[C@H](O)[C@@]1(C)C(=O)[C@H](O)C3=C(C)[C@@H](OC(=O)[C@H](O)[C@@H](NC(=O)OC(C)(C)C)c4ccccc4)C[C@@](O)([C@@H](OC(=O)c4ccccc4)[C@H]21)C3(C)C |  |  |  |  |  |  |  |  |  |  |  |  |  |  |  |  |  |  |  |  | Activity (Tubulin (Homo sapiens)): 4740 a.u.
CC(=O)c1ccc(NC(=O)Cn2nc(-c3ccc(Cl)cc3)nc2N)cc1 | 19.9 | 7.98 | 16.5 | 7.32 | 22 | 15.1 | 28 | 10.4 | 8.53 | 6.47 | 5.94 | 19.8 | 15.4 | 22 | 20.6 | 20.3 | 7.4 | 8.1 | 6.9 | 6.8 | inhibition of growth at 10 µM (RPMI-8226): 3.17%; inhibition of growth at 10 µM (HOP-92): 7.76%; inhibition of growth at 10 µM (NCI-H322M): 5.69%; inhibition of growth at 10 µM (HCT-116): 4.68%; inhibition of growth at 10 µM (SK-MEL-2): 4.03%; inhibition of growth at 10 µM (UACC-62): 6.29%; inhibition of growth at 10 µM (MCF7): 5.48%; inhibition of growth at 10 µM (Hs-578T): 6.29%; inhibition of growth at 10 µM (T47D): 21.6%
C/C(=N/O)c1ccc(NC(=O)Cn2nc(C(F)(F)F)nc2N)cc1 | 10.5 | 26 | 23.3 | 15.9 | 29 | 9.21 | 31 | 11.9 |  | 14.8 | 11.3 | 25.6 | 20.5 | 3.53 | 15.1 | 20.3 | 3.5 | 4.9 | 5.4 | 5.2 | inhibition of growth at 10 µM (RPMI-8226): 4.65%; inhibition of growth at 10 µM (NCI-H226): 12.9%; inhibition of growth at 10 µM (NCI-H23): 4.46%; inhibition of growth at 10 µM (NCI-H322M): 4.32%; inhibition of growth at 10 µM (HCT-116): 8.65%; inhibition of growth at 10 µM (SK-MEL-2): 13.1%; inhibition of growth at 10 µM (UACC-62): 5.39%; inhibition of growth at 10 µM (TK-10): 14.3%
C/C(=N/O)c1ccc(NC(=O)Cn2nc(-c3ccccc3)nc2N)cc1 | 6.77 | 7.41 | 11.5 | 5.58 | 32 | 17.7 | 30 | 13.9 | 3.56 | 22.5 | 8.76 | 34 | 15.3 | 15.2 | 15.4 | 15.8 | 8.7 | 5.7 | 4.7 | 4.4 | inhibition of growth at 10 µM (HOP-92): 5.82%; inhibition of growth at 10 µM (NCI-H226): 3.91%; inhibition of growth at 10 µM (NCI-H23): 3.98%; inhibition of growth at 10 µM (SK-MEL-2): 5.32%; inhibition of growth at 10 µM (A498): 19.6%; inhibition of growth at 10 µM (Hs-578T): 7.41%; inhibition of growth at 10 µM (T47D): 23%
C/C(=N\O)c1ccc(NC(=O)Cn2nc(-c3ccc(Cl)cc3)nc2N)cc1 | 14.7 | 5.94 | 33 | 18.3 | 20.1 | 11.7 | 31.5 | 13.3 | 10.7 | 12 | 9.67 | 27.8 | 18 | 27.4 | 34 | 28.9 | 6.6 | 8.4 | 5.8 | 7.1 | inhibition of growth at 10 µM (RPMI-8226): 6.42%; inhibition of growth at 10 µM (NCI-H226): 17.8%; inhibition of growth at 10 µM (NCI-H23): 7.43%; inhibition of growth at 10 µM (NCI-H322M): 7.09%; inhibition of growth at 10 µM (SF-268): 10.5%; inhibition of growth at 10 µM (SK-MEL-2): 15.3%; inhibition of growth at 10 µM (UACC-62): 8.96%; inhibition of growth at 10 µM (IGROV-1): 10.5%; inhibition of growth at 10 µM (MCF7): 15.9%; inhibition of growth at 10 µM (MDA-MB-231): 17.4%; inhibition of growth at 10 µM (Hs-578T): 11.2%; inhibition of growth at 10 µM (T47D): 13.5%
CC(=O)c1ccc(NC(=O)Cn2nc(C(F)(F)F)nc2N)cc1 | 6.78 | 15.4 | 7.46 |  | 20 | 9.94 | 21 | 16 | 4.37 | 12.5 |  | 14.6 | 13.3 | 7.02 | 13.7 | 10.6 | 4.5 | 4.7 | 3.8 | 3.7 | inhibition of growth at 10 µM (NCI-H226): 8.52%; inhibition of growth at 10 µM (TK-10): 5.17%; inhibition of growth at 10 µM (Hs-578T): 7.42%; inhibition of growth at 10 µM (T47D): 10.8%
CC[C@]1(O)C[C@H]2CN(CCc3c([nH]c4ccccc34)[C@@](C(=O)OC)(c3cc4c(cc3OC)N(C=O)[C@H]3[C@@](O)(C(=O)OC)[C@H](OC(C)=O)[C@]5(CC)C=CCN6CC[C@]43[C@@H]65)C2)C1 |  |  |  |  |  |  |  |  |  |  |  |  |  |  |  |  |  |  |  |  | Activity (Tubulin (Homo sapiens)): 722 a.u.
CC(=O)c1ccc(NC(=O)Cn2nc(-c3ccccc3)nc2N)cc1 |  |  |  |  |  |  |  |  |  |  |  |  |  |  |  |  | 9.5 | 8.5 | 8.4 | 9.8 | 
